Assay results from patent US11472814B2, “Thienopyranones and furanopyranones as checkpoint inhibitors and modulators of anti-tumor immunity” (SignalRx Pharmaceuticals, Inc., priority 2017, dated 2022).

How the values were obtained:
BRD4-2 = target: T1, BRD4-2 (Homo sapiens, UniProt O60885); experiment: Bromodomain protein inhibition IC50, binding domain 2 of BRD4 (Reaction Biology Corp.); settings: 10-point curve
T1 construct: purchased Reaction Biology Corp., Malvern, Pa; (contract assay service)
Excerpt: The inhibitory activity of a compound of the invention against PI3K and/or BRD4 and/or SYK and/or CDK4/6 can be readily determined using methods known to the skilled artisan, or by commercial vendors offering such services. […] In vivo, PI3K inhibition can be determined from target tissue biopsies by standard tissue processing to disrupt cells and then performing Western Blot analysis to determine the presence or absence of pAKT (substrate of PI3K) relative to a control sample. The activity of a compound of the invention as an inhibitor of a bromodomain-containing protein, such as a BET protein, such as BRD2, BRD3, BRD4, and/or BRDT, or an isoform or mutant thereof, may be determined in vitro, in vivo, or in a cell line. In vitro assays include assays that determine inhibition of bromodomain-containing proteins. Alternatively, inhibitor binding may be determined by running a competition experiment where a provided compound is incubated with a bromodomain-containing protein, such as a BET protein bound to known ligands, labeled or unlabeled. For example, bromodomain inhibition can be determined in vitro using Alpha Screen Technology (http://www.reactionbiologv.com/webapps/site/NewsPDFs/Bromodomain%20Assay %20Platform %20for %20Drug %20Screening %20and %20Discovery.pdf). In vivo bromodomain inhibition can be determined indirectly by evaluating the amount of protein present of proteins whose genes' transcription is influenced or controlled by the bromodomain protein, for example, the MYCN protein transcription is controlled by BRD4 (J. E. Delmore et al., Cell 2011, 146, 904-917; A. Puissant, Cancer Discov. 2013, 3, 308-323). Bromodomain inhibition may also be predicted by in silico modeling as described below in the Examples. Additionally, the company Promega offers a SYK luminescent assay to determine a compound's ability to inhibit the SYK protein (https://www.promega.com/-/media/files/resources/protocols/kinase-enzyme-appnotes/syk-kinase-assay-protocol.pdf?la=en).
Compounds of the invention were characterized for their ability to inhibit target proteins using third party vendors offering such services. PI3K alpha, gamma, and delta inhibition activity was determined by Thermo Fisher Scientific-Biosciences Life Sciences Solutions, Madison, Wis. The bromodomain protein inhibition (binding domain 1 and 2 of BRD4) as well as SYK inhibition was determined at Reaction Biology Corp., Malvern, Pa. […] The IC50 data (shown below in Table 5) was calculated from a 10-point curve and is expressed in nanomolar concentration (nM) rounded off to the nearest whole number. […]

[1] = tested on: Bone marrow derived macrophages (BMDMs), M1 gene expression; experiment: M1 marker mRNA in LPS stimulated bone marrow derived macrophages (RT PCR); assay type: cell-based, murine
Excerpt: […] M2 markers Mmr, Ym1, Fizz1 and Mgl mRNA and M1 markers I11, 116 and Tnfa mRNA was quantitated by RT PCR. Values are mean±SEM (n=3-4). Expression of gene of interest is normalized to GAPDH. […] The data provide direct evidence that Compound 1 can block the immunosuppressive macrophage M2 gene expression and activate the M1 gene expression and therefore activate antitumor innate immune cell differentiation in vitro.
Relative mRNA expression of IL4 or LPS polarized genes in murine bone marrow derived macrophages (BMDMs) treated with various concentrations of inhibitors in vitro. Conclusion: Compound 3 suppressed in vitro macrophage specific immunosuppressive M2 gene expression markers and augmented macrophage stimulatory immune response M1 genes respectively.

[2] = tested on: tumor associated macrophages (TAMs) from LLC tumors; experiment: RT-PCR gene expression in tumor associated macrophages sorted from LLC tumors; assay type: in vivo, mice
Excerpt: RT-PCR analysis of cDNAs generated from mRNAs reflecting tumor associated macrophages (TAMs) isolated from LLC tumors grown in WT animals and treated with Compound 3. ***p<0.001**p<0.01 and *p<0.05, t test. […] Expression of gene of interest is normalized to GAPDH. […] Statistical significance is accessed by t test. For example, Compound 3 augmented IL1 gene expression in TAMs 8-fold and suppressed Arginase (Arg) 98% in TAMs isolated from LLC tumors in vivo.

T cells in CT26 tumors = experiment: Flow cytometric quantification of T cells infiltrating CT26 tumors; assay type: in vivo, mice
Experimental: Effect of Compound 3 treatment of CT26 tumor bearing mice in vivo 3 mg/kg by intraperitoneal injection QD (IP) for 14 days on number of CD3+/CD8+ T cells infiltrating the tumor tissue. Conclusion: Compound 3 increased CD8+ T cells in the tumor compartment by 800% in vivo. (n=6, p<0.001, t test) as compared to vehicle control treated mice.
Values represent mean±SEM. Conclusion: Compound 3 decreased CD4+ T cells by 5.6-fold and increased CD8+ T cells in the tumor compartment by 6% in vivo as compared to vehicle control treated mice.

MC38 tumors = experiment: MC38 tumor growth in immunocompetent murine model; assay type: in vivo; settings: vs vehicle
Excerpt: We investigated the effect of Compound 3 on immune cell in vitro and on tumor growth in in vivo in immunocompetent syngeneic tumor models and the effects on the macrophage and T cell immune compartment in vivo by this compound. […] In order to distinguish whether Compound 3 blocks tumor growth due to its effect on immune cell compartment and not on tumor compartment, we tested the effect of this chemotype on CT26 tumor growth in immunodeficient NSG mice vs immunocompetent Balb/c mice. […] Compound 3 has combinatorial immune-oncologic activity in vivo to stimulate anti-cancer innate and adaptive immunity in well-defined accepted immune competent murine models for cancer immunotherapy.
In contrast to above data, Compound 3 has a marked significant inhibitory effect on CT26, LLC and MC38 tumor growth in immunocompetent murine models. Conclusion: this establishes effect of Compound 3 as immune-oncologically active agent in cancer immunotherapy. In immunocompetent mice with same tumor cell inoculum Compound 3 inhibited tumor growth by from 58-68%. p<0.001 in all experiments compared to vehicle control.

[3] = Table 8, 200 nM, LPS polarized murine BMDMs, control = 1
[4] = LLC tumors in WT animals, vs vehicle
[5] = TAMs isolated from LLC tumors in vivo, vs vehicle
[6] = CT26 tumors, flow cytometry, vs vehicle

Cc1nn(-c2ccnc(Nc3ccc(-c4csc5c(=O)cc(N6CCOCC6)oc45)cc3)n2)cc1CN1CCC1 [Compound 3, 3-[p-(4-{4-[(1-Azetidinyl)methyl]-3-methyl-1H-pyrazol-1-yl}-2-pyrimidinylamino)phenyl]-5-morpholino-4-oxa-1-thia-7-indenone]
IC50 (BRD4-2): 1000 to 5000 nM | Ifng relative mRNA expression (M1 gene) [1, 3]: 5.043 ± 1.9 | Il1 relative mRNA expression (M1 gene) [1, 3]: 7.19 ± 0.9 | Il6 relative mRNA expression (M1 gene) [1, 3]: 2.5 ± 0.2 | Nos2 relative mRNA expression (M1 gene) [1, 3]: 2.458 ± 0.31 | Tnfa relative mRNA expression (M1 gene) [1, 3]: 2.2 ± 0.3 | macrophage stimulatory immune response M1 genes ([1]; murine BMDMs, LPS polarized, various concentrations): augmented | expression of immune response genes in TAMs [2, 4]: activated the expression of immune response genes | expression of macrophage M2 immunosuppressive genes in TAMs [2, 4]: suppressed the expression of macrophage M2 immunosuppressive genes | Nos2 gene expression in macrophages sorted from LLC tumors ([2]; TAMs from LLC tumors in treated WT mice, normalized to GAPDH, vehicle 0.95 ± 0.06): 21 ± 0.19 | Vegf gene expression in macrophages sorted from LLC tumors ([2]; TAMs from LLC tumors in treated WT mice, normalized to GAPDH, vehicle 0.995 ± 0.06): 0.56 ± 0.05 | Il1 gene expression in macrophages sorted from LLC tumors ([2]; TAMs from LLC tumors in treated WT mice, normalized to GAPDH, vehicle 1.0 ± 0.04): 8.3 ± 1.43 | Ifng gene expression in macrophages sorted from LLC tumors ([2]; TAMs from LLC tumors in treated WT mice, normalized to GAPDH, vehicle 1 ± 0.3): 3.26 ± 1.04 | Il6 gene expression in macrophages sorted from LLC tumors ([2]; TAMs from LLC tumors in treated WT mice, normalized to GAPDH, vehicle 1.0 ± 0.3): 1.8 ± 0.16 | Tgfb gene expression in macrophages sorted from LLC tumors ([2]; TAMs from LLC tumors in treated WT mice, normalized to GAPDH, vehicle 1 ± 0.7): 0.35 ± 0.014 | Arg gene expression in macrophages sorted from LLC tumors ([2]; TAMs from LLC tumors in treated WT mice, normalized to GAPDH, vehicle 1 ± 0.9): 0.08 ± 0.004 | Arginase (Arg) suppression in TAMs [2, 5]: 98% | IL1 gene expression in TAMs, augmentation [2, 5]: 8 fold | increase of CD8+ T cells in the tumor compartment (T cells in CT26 tumors; CT26, 3 mg/kg IP QD 14 days, CD3+/CD8+, vs vehicle): 800% | decrease of CD4+ T cells (T cells in CT26 tumors; [6]): 5.6 fold | increase of CD8+ T cells in the tumor compartment (T cells in CT26 tumors; [6]): 6% | CD3+ T cells (% of live cells) (T cells in CT26 tumors; CT26 tumors, Compound 3 3 mg/kg IP QD 14 days, vehicle 1.1 ± 0.29): 8 ± 0.46 % of live cells | CD8+ T cells (% of CD3+ T cells) (T cells in CT26 tumors; CT26 tumors, flow cytometry, mean±SEM, n=3, vehicle 56 ± 3.9): 62 ± 2.0 % of CD3+ T cells | CD4+ T cells (% of CD3+ T cells) (T cells in CT26 tumors; CT26 tumors, flow cytometry, mean±SEM, n=3, vehicle 56 ± 5.29): 9.5 ± 0.7 % of CD3+ T cells | % Growth inhibition of MC38 tumor (MC38 tumors): 62 +/− 24%
